# According to ChEMBL document CHEMBL1938310, “Discovery of novel antitubercular 1,5-dimethyl-2-phenyl-4-([5-(arylamino)-1,3,4-oxadiazol-2-yl]methylamino)-1,2-dihydro-3H-pyrazol-3-one analogues” (Bioorg Med Chem Lett, 2012):
# Tested on: Mycobacterium tuberculosis
# Assay: Ratio of MIC for isoniazid-resistant Mycobacterium tuberculosis to MIC for Mycobacterium tuberculosis H37Rv
# Format: functional
row,Compound,Ratio
1,Cc1c(NCc2nnc(Nc3ccc(F)cc3)o2)c(=O)n(-c2ccccc2)n1C,4

# Tested on: Mycobacterium tuberculosis
# Assay: Antimycobacterial activity against isoniazid-resistant Mycobacterium tuberculosis by two fold agar dilution method
# Format: functional
row,Compound,MIC
1,Cc1c(NCc2nnc(Nc3ccc(F)c(Cl)c3)o2)c(=O)n(-c2ccccc2)n1C,10 µg/mL
2,Cc1c(NCc2nnc(Nc3ccc(F)cc3)o2)c(=O)n(-c2ccccc2)n1C,3.12 µg/mL
3,Cc1c(NCc2nnc(Nc3ccc(Cl)cc3)o2)c(=O)n(-c2ccccc2)n1C,10 µg/mL
4,Cc1c(NCc2nnc(Nc3ccc(Br)cc3)o2)c(=O)n(-c2ccccc2)n1C,12.5 µg/mL
5,Cc1c(NCc2nnc(Nc3ccccc3Cl)o2)c(=O)n(-c2ccccc2)n1C,> 12.5 µg/mL
6,Cc1c(Cl)cccc1Nc1nnc(CNc2c(C)n(C)n(-c3ccccc3)c2=O)o1,> 12.5 µg/mL
7,Cc1c(NCc2nnc(Nc3ccc([N+](=O)[O-])cc3)o2)c(=O)n(-c2ccccc2)n1C,6.25 µg/mL
8,Cc1ccc(Nc2nnc(CNc3c(C)n(C)n(-c4ccccc4)c3=O)o2)cc1,> 12.5 µg/mL
9,COc1ccc(Nc2nnc(CNc3c(C)n(C)n(-c4ccccc4)c3=O)o2)cc1,> 12.5 µg/mL
10,Cc1ccc(Nc2nnc(CNc3c(C)n(C)n(-c4ccccc4)c3=O)o2)c(C)c1,> 12.5 µg/mL
11,Cc1cccc(C)c1Nc1nnc(CNc2c(C)n(C)n(-c3ccccc3)c2=O)o1,> 12.5 µg/mL
12,Cc1c(NCc2nnc(Nc3ccc(O)cc3)o2)c(=O)n(-c2ccccc2)n1C,12.5 µg/mL
13,Cc1c(NCc2nnc(Nc3ccc(S(N)(=O)=O)cc3)o2)c(=O)n(-c2ccccc2)n1C,12.5 µg/mL
14,Cc1c(NCc2nnc(Nc3ccccc3)o2)c(=O)n(-c2ccccc2)n1C,> 12.5 µg/mL
15,NNC(=O)c1ccncc1 [ISONIAZID],12.5 µg/mL
